Test results from ChEMBL document CHEMBL4346739, “Design, synthesis, and evaluation of novel N-(4-phenoxybenzyl)aniline derivatives targeting acetylcholinesterase, β-amyloid aggregation and oxidative stress to treat Alzheimer's disease” (Bioorg Med Chem, 2019).
pIC50, pKi: −log10 of the molar value. Calls of active or inactive are those of the source. No cut-off for these calls is given here.

What was measured:
[1] = Permeability of compound at 25 ug/ml at pH 7.4 incubated for 18 hrs by PAMPA-BBB assay
[2] = Octanol/water partition co-efficient, log P of compound at pH 7.4 by shake-flask method; type: physicochemical
Cholinesterase = Cholinesterase (Homo sapiens, UniProt P06276); test: Inhibition of human plasma BChE using butyrylthiocholine iodide as substrate preincubated for 10 mins followed by substrate addition and measured at 6 mins by Ellman's method
Sequence of Cholinesterase (P06276 whole entry): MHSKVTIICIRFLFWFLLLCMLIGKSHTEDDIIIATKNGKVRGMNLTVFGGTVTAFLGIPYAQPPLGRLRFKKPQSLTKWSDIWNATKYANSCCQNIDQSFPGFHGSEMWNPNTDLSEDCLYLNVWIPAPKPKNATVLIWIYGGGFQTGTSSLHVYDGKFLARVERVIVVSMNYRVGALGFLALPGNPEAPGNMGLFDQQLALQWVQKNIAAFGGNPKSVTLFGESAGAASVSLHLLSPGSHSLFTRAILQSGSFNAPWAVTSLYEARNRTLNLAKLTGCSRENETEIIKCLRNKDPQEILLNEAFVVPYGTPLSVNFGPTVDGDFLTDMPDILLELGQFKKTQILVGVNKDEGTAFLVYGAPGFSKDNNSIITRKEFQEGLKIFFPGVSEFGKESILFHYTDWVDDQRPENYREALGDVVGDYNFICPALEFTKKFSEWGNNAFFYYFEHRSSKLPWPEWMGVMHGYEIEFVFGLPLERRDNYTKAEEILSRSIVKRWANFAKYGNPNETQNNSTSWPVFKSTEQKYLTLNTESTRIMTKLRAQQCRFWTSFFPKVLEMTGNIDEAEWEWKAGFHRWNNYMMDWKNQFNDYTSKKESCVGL

Acetylcholinesterase [3] = biological target: T1, Acetylcholinesterase (Homo sapiens, UniProt P22303); test: Inhibition of human erythrocyte AChE using acetylthiocholine iodide as substrate preincubated for 10 mins followed by substrate addition and measured for 6 mins by Ellman's method
T1 sequence (P22303 whole entry): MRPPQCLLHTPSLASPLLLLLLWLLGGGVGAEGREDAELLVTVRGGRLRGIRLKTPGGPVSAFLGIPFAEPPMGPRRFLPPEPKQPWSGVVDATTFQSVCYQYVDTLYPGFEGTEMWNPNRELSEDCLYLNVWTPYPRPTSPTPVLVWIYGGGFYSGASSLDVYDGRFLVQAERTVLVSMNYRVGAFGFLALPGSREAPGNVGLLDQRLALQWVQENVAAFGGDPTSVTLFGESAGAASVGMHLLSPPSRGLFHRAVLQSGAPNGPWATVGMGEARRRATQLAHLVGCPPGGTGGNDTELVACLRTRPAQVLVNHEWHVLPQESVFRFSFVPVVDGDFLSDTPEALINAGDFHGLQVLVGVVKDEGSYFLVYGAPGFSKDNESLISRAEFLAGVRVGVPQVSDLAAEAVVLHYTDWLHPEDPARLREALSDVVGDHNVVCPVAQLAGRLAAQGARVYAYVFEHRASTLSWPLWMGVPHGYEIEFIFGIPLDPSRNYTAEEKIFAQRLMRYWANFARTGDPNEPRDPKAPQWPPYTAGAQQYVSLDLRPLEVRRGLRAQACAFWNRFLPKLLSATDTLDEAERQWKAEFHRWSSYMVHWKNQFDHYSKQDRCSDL

Mus musculus [4] = test: Cognitive enhancing effect in albino mouse assessed as reversal of scopolamine-induced reduction in spontaneous alteration score at 5 mg/kg, po administered once daily for 7 days followed by scopolamine challenge for 5 mins prior to test and measured on day 7 by Y-maze test; type: functional, organism-based
Mus musculus [5] = test: Reversal of scopolamine-induced amnesic effect in albino mouse assessed as increase in transfer latency time of retention trial at 5 mg/kg, po administered once daily for 7 days followed by scopolamine challenge and subsequent training session for 5 mins by passive avoidance test; type: functional, organism-based
Mus musculus [6] = test: Reversal of scopolamine-induced amnesic effect in albino mouse assessed as increase in transfer latency time of acquisition trial at 5 mg/kg, po administered once daily for 7 days followed by scopolamine challenge and subsequent training session for 5 mins by passive avoidance test; type: functional, organism-based
[7] = Acute toxicity in Swiss albino mouse assessed as induction of tremors by OECD 423 guideline based method; conditions: in vivo
[8] = Acute toxicity in Swiss albino mouse assessed as effect on feeding behavior by OECD 423 guideline based method; conditions: in vivo
Mus musculus [9] = test: In vivo antioxidant activity in albino mouse assessed as increase in scopolamine-induced catalase activity by measuring decrease in H2O2 level in brain at 2.5 to 10 mg/kg, po administered once daily for 7 days followed by scopolamine challenge; type: functional, organism-based
Mus musculus [10] = test: Reversal of scopolamine-induced amnesic effect in albino mouse assessed as increase in transfer latency time of acquisition trial at 2.5 to 10 mg/kg, po administered once daily for 7 days followed by scopolamine challenge and subsequent training session for 5 mins by passive avoidance test; type: functional, organism-based
Mus musculus [11] = test: Effect on total arm entries in scopolamine-induced spatial memory impairment in albino mouse model of amnesia at 2.5 to 10 mg/kg, po administered once daily for 7 days followed by scopolamine challenge for 5 mins prior to test and measured on day 7 by Y-maze test; type: ADME, organism-based; conditions: in vivo
Acetylcholinesterase [12] = biological target: T1, Acetylcholinesterase; test: Competitive inhibition of human erythrocyte AChE assessed as enzyme-inhibitor complex formation by measuring intersection points on both axes of 1/Vmax and 1/[S] at 10 nM to 10 uM using acetylthiocholine iodide as substrate preincubated for 10 mins followed by substrate addition and measured up to 6 mins by Lineweaver-Burk plot analysis
[13] = Acute toxicity in Swiss albino mouse assessed as salivation by OECD 423 guideline based method; conditions: in vivo
Acetylcholinesterase [14] = biological target: T1, Acetylcholinesterase; test: Competitive inhibition of human erythrocyte AChE assessed as effect on substrate V max at 10 nM to 10 uM using acetylthiocholine iodide as substrate preincubated for 10 mins followed by substrate addition and measured up to 6 mins by Lineweaver-Burk plot analysis
Acetylcholinesterase [15] = biological target: T1, Acetylcholinesterase; test: Competitive inhibition of human erythrocyte AChE at 10 nM to 10 uM using acetylthiocholine iodide as substrate preincubated for 10 mins followed by substrate addition and measured up to 6 mins by Lineweaver-Burk plot analysis
[16] = Acute toxicity in Swiss albino mouse assessed as mortality by OECD 423 guideline based method; conditions: in vivo
Acetylcholinesterase [17] = biological target: T1, Acetylcholinesterase; test: Competitive inhibition of human erythrocyte AChE assessed as enzyme-inhibitor complex formation by measuring 1/s at 10 nM to 10 uM using acetylthiocholine iodide as substrate preincubated for 10 mins followed by substrate addition and measured up to 6 mins by Lineweaver-Burk plot analysis
Mus musculus [18] = test: Antialzheimer activity in albino mouse assessed as reversal of scopolamine-induced AChE level in brain at 2.5 to 10 mg/kg, po administered once daily for 7 days followed by scopolamine challenge using acetylthiocholine iodide as substrate by Ellman's method; type: functional, organism-based
[19] = Acute toxicity in Swiss albino mouse assessed as diarrhea by OECD 423 guideline based method; conditions: in vivo
[20] = Acute toxicity in Swiss albino mouse assessed as effect on sleep by OECD 423 guideline based method; conditions: in vivo
Acetylcholinesterase [21] = biological target: T1, Acetylcholinesterase; test: Competitive inhibition of human erythrocyte AChE assessed as […] in Km at 10 nM to 10 uM using acetylthiocholine iodide as substrate preincubated for 10 mins followed by substrate addition and measured up to 6 mins by Lineweaver-Burk plot analysis
Mus musculus [22] = test: Reversal of scopolamine-induced amnesic effect in albino mouse assessed as increase in transfer latency time of retention trial at 2.5 to 10 mg/kg, po administered once daily for 7 days followed by scopolamine challenge and subsequent training session for 5 mins by passive avoidance test; type: functional, organism-based
Mus musculus [23] = test: In vivo antioxidant activity in albino mouse assessed as increase in scopolamine-induced SOD level in brain at 2.5 to 10 mg/kg, po administered once daily for 7 days followed by scopolamine challenge and measured for 2 mins at 30 secs interval; type: functional, organism-based
Mus musculus [24] = test: Cognitive enhancing effect in albino mouse assessed as reversal of scopolamine-induced reduction in spontaneous alteration score at 2.5 to 10 mg/kg, po administered once daily for 7 days followed by scopolamine challenge for 5 mins prior to test and measured on day 7 by Y-maze test; type: functional, organism-based
Acetylcholinesterase [25] = biological target: T1, Acetylcholinesterase; test: Inhibition of human erythrocyte AChE-induced amyloid beta (1 to 42) (unknown origin) aggregation incubated for 48 hrs by fluorescence based thioflavin T assay
Mus musculus [26] = test: In vivo antioxidant activity in albino mouse assessed as decrease in scopolamine-induced MDA level in brain at 2.5 to 10 mg/kg, po administered once daily for 7 days followed by scopolamine challenge by TBARS assay; type: functional, organism-based
[27] = Acute toxicity in Swiss albino mouse assessed as convulsions by OECD 423 guideline based method; conditions: in vivo

NCCc1ccc(O)c(O)c1 [DOPAMINE]
Papp at 18 h, 25 ug/ml [1]: 0.18 to 0.2 ×10⁻⁶ cm/s

COc1ccc(NCc2ccc(Oc3c(N)cccc3Cl)cc2)cc1
logD [2]: 3.33 | Papp at 18 h, 25 ug/ml [1]: 5.68 ×10⁻⁶ cm/s | pIC50 (Cholinesterase): 5.00 | pIC50 (Acetylcholinesterase [3]): 5.28

Nc1cccc(Cl)c1Oc1ccc(CNc2ccc(Br)cc2)cc1
logD [2]: 4.52 | Papp at 18 h, 25 ug/ml [1]: 3.48 ×10⁻⁶ cm/s | pIC50 (Cholinesterase): < 5.00 | pIC50 (Acetylcholinesterase [3]): < 5.00

COc1cccc(NCc2ccc(Oc3c(N)cccc3Cl)cc2)c1
logD [2]: 3.98 | Papp at 18 h, 25 ug/ml [1]: 4.65 ×10⁻⁶ cm/s | pIC50 (Cholinesterase): 5.08 | pIC50 (Acetylcholinesterase [3]): 5.25

CCn1cc(C(=O)O)c(=O)c2cc(F)c(N3CCNC(C)C3)c(F)c21 (configuration not stated) [LOMEFLOXACIN]
Papp at 18 h, 25 ug/ml [1]: 0.31 to 1.1 ×10⁻⁶ cm/s

CC(=O)[C@H]1CC[C@H]2[C@@H]3CCC4=CC(=O)CC[C@]4(C)[C@H]3CC[C@]12C [PROGESTERONE]
Papp at 18 h, 25 ug/ml [1]: 9.3 to 13.8 ×10⁻⁶ cm/s

Nc1cccc(Cl)c1Oc1ccc(CNc2cccc(O)c2)cc1
logD [2]: 3.01 | Papp at 18 h, 25 ug/ml [1]: 5.55 ×10⁻⁶ cm/s | pIC50 (Cholinesterase): 5.02 | pIC50 (Acetylcholinesterase [3]): 5.14

Nc1cccc(Cl)c1Oc1ccc(CNc2ccccc2)cc1
logD [2]: 3.54 | Papp at 18 h, 25 ug/ml [1]: 6.26 ×10⁻⁶ cm/s | pIC50 (Cholinesterase): < 5.00 | pIC50 (Acetylcholinesterase [3]): < 5.00

Nc1cccc(Cl)c1Oc1ccc(CNc2cc(Br)cc(Br)c2)cc1
logD [2]: 4.52 | Papp at 18 h, 25 ug/ml [1]: 1.45 ×10⁻⁶ cm/s | pIC50 (Cholinesterase): < 5.00 | pIC50 (Acetylcholinesterase [3]): < 5.00

Nc1cccc(Cl)c1Oc1ccc(CNc2cccc(Cl)c2)cc1
logD [2]: 3.98 | Papp at 18 h, 25 ug/ml [1]: 5.65 ×10⁻⁶ cm/s | pIC50 (Cholinesterase): < 5.00 | pIC50 (Acetylcholinesterase [3]): < 5.00

Nc1cccc(Cl)c1Oc1ccc(CNc2ccc(Cl)cc2)cc1
logD [2]: 4.65 | Papp at 18 h, 25 ug/ml [1]: 3.42 ×10⁻⁶ cm/s | pIC50 (Cholinesterase): < 5.00 | pIC50 (Acetylcholinesterase [3]): < 5.00

COc1cc(NCc2ccc(Oc3c(N)cccc3Cl)cc2)cc(OC)c1
logD [2]: 3.56 | Papp at 18 h, 25 ug/ml [1]: 4.54 ×10⁻⁶ cm/s | pIC50 (Cholinesterase): 5.19 | pIC50 (Acetylcholinesterase [3]): 5.54

COc1cc2c(cc1OC)C(=O)C(CC1CCN(Cc3ccccc3)CC1)C2 (configuration not stated)
Activity (Mus musculus [4]): Active | Activity (Mus musculus [5]): Active | Activity (Mus musculus [6]): Active

Nc1cccc(Cl)c1Oc1ccc(CNc2cccc(Br)c2)cc1
logD [2]: 4.05 | Papp at 18 h, 25 ug/ml [1]: 3.56 ×10⁻⁶ cm/s | pIC50 (Cholinesterase): < 5.00 | pIC50 (Acetylcholinesterase [3]): < 5.00

Nc1cccc(Cl)c1Oc1ccc(CNc2ccc(O)cc2)cc1
logD [2]: 3.15 | Papp at 18 h, 25 ug/ml [1]: 6.87 ×10⁻⁶ cm/s | pIC50 (Cholinesterase): 5.03 | pIC50 (Acetylcholinesterase [3]): 5.06

COc1cc(NCc2ccc(Oc3c(N)cccc3Cl)cc2)cc(OC)c1OC
Activity [7]: Non-Toxic | Activity [8]: Non-Toxic | logD [2]: 3.78 | Activity (Mus musculus [9]): Active | Activity (Mus musculus [10]): Active | Activity (Mus musculus [11]): Non-Toxic | Ratio (Acetylcholinesterase [12]): > 0 | Papp at 18 h, 25 ug/ml [1]: 6.35 ×10⁻⁶ cm/s | Activity (Mus musculus [4]): Active | Activity [13]: Non-Toxic | inhibition (Acetylcholinesterase [14]): Active | pKi (Acetylcholinesterase [15]): 6.06 | Activity [16]: Non-Toxic | fold change (FC) (Acetylcholinesterase [17]): > 0 | Activity (Mus musculus [18]): Dose-dependent effect | pIC50 (Cholinesterase): 5.08 | Activity [19]: Non-Toxic | Activity [20]: Non-Toxic | inhibition (Acetylcholinesterase [21]): Active | Activity (Mus musculus [22]): Dose-dependent effect | Activity (Mus musculus [23]): Active | pIC50 (Acetylcholinesterase [3]): 5.88 | Activity (Mus musculus [24]): Active | inhibition (Acetylcholinesterase [25]): Dose-dependent effect | Activity (Mus musculus [26]): Active | Activity [27]: Non-Toxic

Nc1cccc(Cl)c1Oc1ccc(CNc2cc(Cl)cc(Cl)c2)cc1
logD [2]: 4.39 | Papp at 18 h, 25 ug/ml [1]: 1.56 ×10⁻⁶ cm/s | pIC50 (Cholinesterase): < 5.00 | pIC50 (Acetylcholinesterase [3]): < 5.00

Cc1nnc2n1-c1ccc(Cl)cc1C(c1ccccc1)=NC2 [ALPRAZOLAM]
Papp at 18 h, 25 ug/ml [1]: 4.2 to 5.4 ×10⁻⁶ cm/s

CN(C)CCCN1c2ccccc2Sc2ccc(Cl)cc21 [CHLORPROMAZINE]
Papp at 18 h, 25 ug/ml [1]: 5.8 to 6.5 ×10⁻⁶ cm/s
